We go through 4 molecules from patent US7282522B2, “Hydroxamic acid derivatives and the method for preparing thereof” (Amorepacific Corporation, priority 2003, dated 2007).

For one series, the target named is T1, RARα (Homo sapiens, UniProt P10276).
T1 construct: expressed in transfected cells; host or cells: CV-1 cells (ATCC)
T1 sequence (P10276 1-462): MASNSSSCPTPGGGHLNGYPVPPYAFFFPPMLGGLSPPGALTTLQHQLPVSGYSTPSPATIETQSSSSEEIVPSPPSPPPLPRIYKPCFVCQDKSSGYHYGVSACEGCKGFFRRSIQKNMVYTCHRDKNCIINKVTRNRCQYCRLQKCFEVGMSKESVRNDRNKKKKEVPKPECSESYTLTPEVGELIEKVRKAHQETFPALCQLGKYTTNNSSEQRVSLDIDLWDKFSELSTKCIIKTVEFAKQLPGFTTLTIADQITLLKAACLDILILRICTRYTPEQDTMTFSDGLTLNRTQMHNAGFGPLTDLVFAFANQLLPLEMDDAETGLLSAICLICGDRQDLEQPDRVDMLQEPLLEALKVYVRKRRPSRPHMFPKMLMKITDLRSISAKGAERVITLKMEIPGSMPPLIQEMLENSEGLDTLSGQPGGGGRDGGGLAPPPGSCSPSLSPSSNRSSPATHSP
In words: RARE-luciferase reporter assay in transfected CV-1 cells (affinity to retinoic acid receptor), RARα. Type of series: cell-based. The settings on record: treated 24 hours at final concentration 10^−4M, control group 1000. The method, boiled down: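 CV-1 cells co-transfected with pECE-RARα or pECE-RARγ, RARE-tk-Luc reporter and β-galactosidase vector. Starting 24 h post-transfection, cells were treated for 24 h with compounds at a final 10^−4M; luciferase reporter read-out.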
For orientation: A reporter such as luciferase makes a cellular process visible.

In a further series the test system is elastase. In words: Inhibition of elastase expression in human fibroblasts (ELISA kit). Type of series: cell-based. The following applies: 10^−4M, 24 hours, serum-free medium, relative to control group = 100. The method, boiled down: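 Elastase in fibroblast culture fluid quantified by sandwich ELISA: 3 h capture, then chromophore-conjugated secondary antibody, then colour development, stopped with 1M sulfuric acid. Absorbance read at 405 nm. Expression given as % of the untreated control absorbance, with control set to 100.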
On the technique in general: In an ELISA, binding on a coated surface is turned into a signal by an enzyme label.

Series [1] deals with rabbits. The settings on record: rabbit, in vivo.
In another series the test system is collagenase. In words: Inhibition of collagenase expression in human fibroblasts (ELISA kit). Format: cell-based. The settings on record: 10^−4M, 24 hours, serum-free medium, relative to control group = 100. The method, boiled down: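 Serum-starved human fibroblasts were treated for 24 h with 10^−4M test material in serum-free DMEM. Collagenase in the culture fluid was measured by sandwich ELISA read at 405 nm. Values are expressed as % of the untreated control (=100).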

The subject of a further series is procollagen type I. As to the kind of experiment: Effect on collagen biosynthesis (procollagen type I ELISA) in human fibroblasts. Format: cell-based. The following applies: 10^−4M, 24 hours, serum-free medium, relative to control group = 100. How it is done: Human fibroblasts were seeded into 24-well plate at 1×10^5 cells per well and then cultured to 90% of growth.
For each supernatant, procollagen production was measured with procollagen type I ELISA kit.

A further series has as its system white guinea pigs. As to the kind of experiment: Phototoxicity test (UVA irradiation). The following applies: for Evaluation (phototoxicity): 1%(w/v) solution, UVA 15 J/cm^2; for Phototoxic index: 50 μl of 1%(w/v) solution, UVA 320~380 nm 15 J/cm^2, observed 24, 48 and 72 hours.
The next series addresses T2, RARγ (Homo sapiens, UniProt P13631).
T2 construct: expressed in transfected cells; host or cells: CV-1 cells (ATCC)
T2 sequence (P13631 1-454): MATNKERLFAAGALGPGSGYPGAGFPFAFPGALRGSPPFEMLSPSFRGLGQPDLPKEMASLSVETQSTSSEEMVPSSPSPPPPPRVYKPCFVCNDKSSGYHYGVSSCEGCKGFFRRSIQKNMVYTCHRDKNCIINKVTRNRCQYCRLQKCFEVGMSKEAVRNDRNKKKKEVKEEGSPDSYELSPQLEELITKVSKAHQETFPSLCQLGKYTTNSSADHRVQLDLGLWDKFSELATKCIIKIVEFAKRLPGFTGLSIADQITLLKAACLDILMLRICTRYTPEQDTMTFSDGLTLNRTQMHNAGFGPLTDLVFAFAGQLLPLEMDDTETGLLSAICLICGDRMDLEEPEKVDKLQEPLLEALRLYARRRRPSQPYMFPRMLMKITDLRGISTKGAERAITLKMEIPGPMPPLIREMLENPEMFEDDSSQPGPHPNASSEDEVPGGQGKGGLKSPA
As to the kind of experiment: RARE-luciferase reporter assay in transfected CV-1 cells (affinity to retinoic acid receptor), RARγ. Type of series: cell-based. The following applies: treated 24 hours at final concentration 10^−4M, control group 5000. The method, boiled down:
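CV-1 cells in DMEM with 2.5% FBS, 5,000 per well, transfected 24 h after seeding with 10 ng pECE-RARα, pECE-RARγ, 100 ng RARE-tk-Luc reporter and 100 ng β-galactosidase vector. Read-out is RARE-driven luciferase.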

Series [2] has as its system rabbits. As to the kind of experiment: Primary skin irritation test on animals (Draize P.I.I.). The settings on record: depilated back.

Read-outs that look alike come from different tables or passages of the source.

Experimental for white guinea pigs: Test was performed for twenty-five (25) of white guinea pigs whose backs were depilated and fixed. On both sides of the back, six(6) sites of 2 cm×2 cm, three(3) per side were sectioned. Right sites were compared as controls with no irradiation (UV non-irradiation sites) and left sites were irradiated (UV irradiation sites).
30 Minutes later, right sites were shielded with aluminum foil and UVA(320˜380 nm) was irradiated at a distance of about 10 cm therefrom using Waldmann to the final energy of 15 J/cm^2. After 24, 48 and 72 hours elapsed, skin response of guinea pig was observed. […] Evaluation was estimated for each elapsed time, i.e. 24, 48 and 72 hours and maximum scores were selected, to calculate irritation index by the following equation 3. Then, phototoxic index was calculated by the following equation 4. Irritation index=(ΣMaximum of erythema+ΣMaximum of edema)/Number of animals [Equation 3] Phototoxic index=(Irritation index of UV irradiation site)−(Irritation index of UV non-irradiation site) Equation 4]

In the case of `CN(C(=O)c1ccc(C(C)(C)C)cc1)c1ccc(C(=O)NO)cc1` [Example 19, N-[4-(N-hydroxycarbamoyl)phenyl]-N-methyl-[4-tert-butylphenyl]carboxyamide], the “Luciferase activity RARα” value at RARα stood at 10020. Further, the “Elastase expression (%)” value in the series with elastase worked out at 80%. For the same molecule, in the series on rabbits [1], the “Evaluation (skin irritation)” value is “No irritation” and the “P.I.I. (Primary Irritation Index)” value amounted to 0.223. Besides, the “Collagenase expression (%)” value in the series on collagenase was determined as 70%. In addition, the “Collagen biosynthesis (%)” value with procollagen type I is listed as 120%. Besides, in the series with white guinea pigs, the “Evaluation (phototoxicity)” value is reported as “No phototoxicity (lower value than 0.5, criterion value to be estimated as no phototoxicity)” and the Phototoxic index came out at 0. Moreover, the “Luciferase activity RARγ” value at RARγ was determined as 11200.

Take `O=C(Cc1ccc(NC(=O)c2ccccc2)cc1)NO` [Example 23, N-[4-(N-hydroxycarbamoylmethyl)phenyl]benzamide]: the “Luciferase activity RARα” value at RARα is listed as 13000. Further, the “Elastase expression (%)” value in the series with elastase is 79%. Moreover, in the series on rabbits [1], the “Evaluation (skin irritation)” value is “No irritation” and the “P.I.I. (Primary Irritation Index)” value turned out to be 0.321. Moreover, the “Collagenase expression (%)” value with collagenase came to 77%. Further, the “Collagen biosynthesis (%)” value in the series with procollagen type I is reported as 131%. In addition, in the series with white guinea pigs, the “Evaluation (phototoxicity)” value was “No phototoxicity (lower value than 0.5, criterion value to be estimated as no phototoxicity)” and the Phototoxic index was determined as 0. Besides, the “Luciferase activity RARγ” value at RARγ worked out at 13200.

On to `CN(O)C(=O)c1ccc(C(=O)N(C)C23CC4CC(CC(C4)C2)C3)cc1` [Example 55, N-adamantyl [4-(N-hydroxy-N-methylcarbamoyl)phenyl]-N-methyl carboxyamide], for which the “Luciferase activity RARα” value at RARα is 13400. Besides, in the series on elastase, the “Elastase expression (%)” value is given as 70%. The “Collagenase expression (%)” value in the series with collagenase worked out at 85%. The “Collagen biosynthesis (%)” value in the series on procollagen type I is listed as 108%. The “P.I.I. (Primary Irritation Index)” value in the series with rabbits [2] (0.5 ml of 1% solution in 1,3-butylene glycol:ethanol 7:3, observed 24 or 72 hours later) is listed as 0.245. Besides, the “Evaluation (skin irritation)” value in the series with rabbits [2] (1% solution, according to Draize's P.I.I.) was “No irritation”. In addition, in the series on white guinea pigs, the “Evaluation (phototoxicity)” value was “No phototoxicity (lower value than 0.5, criterion value to be estimated as no phototoxicity)” and the Phototoxic index was determined as 0. Further, the “Luciferase activity RARγ” value at RARγ turned out to be 11000.

As for “N-[4-(N-hydroxycarbamoyl)phenyl]adamantyl carboxyamide [Example 10]”, the “Luciferase activity RARα” value at RARα is recorded as 11000. The “Elastase expression (%)” value in the series with elastase turned out to be 77%. In the series with rabbits [1], the “Evaluation (skin irritation)” value was “No irritation” and the “P.I.I. (Primary Irritation Index)” value came out at 0.375. In addition, the “Collagenase expression (%)” value in the series with collagenase stood at 75%. In the series on procollagen type I, the “Collagen biosynthesis (%)” value was found to be 106%. Besides, in the series on white guinea pigs, the “Evaluation (phototoxicity)” value was “No phototoxicity (lower value than 0.5, criterion value to be estimated as no phototoxicity)” and the Phototoxic index was 0. Also, the “Luciferase activity RARγ” value on RARγ was found to be 12000.
